Where two headings read alike, the source gives them in different places.

One test concerns HeLa cells. Kind of test: MTT cell viability assay (anti-proliferation activity). The format is cell-based, human. How it is done:
(§1) The colorectal cancer (HT-29), lung carcinoma (A549) and T-cell leukemia (Jurkat) cell lines were maintained as monolayer cultures in RPMI-1640 supplemented with 100 µg/ml streptomycin, 100 U/ml penicillin and 10% (v/v) foetal bovine serum (FBS) (all from Sigma, Ireland). Human glioma (SNB-19), human pancreatic carcinoma (MiaPaCa) and breast carcinoma (MDA-MB-231) cells were obtained from the American Type Culture Collection (ATCC) and maintained in Dulbecco's Modified Eagle's Medium (DMEM) supplemented with 100 µg/ml streptomycin, 100 U/ml penicillin, 2 mM L-glutamine, and 10% (v/v) FBS. The melanoma cell line (WM793) was originally isolated from a superficial spreading melanoma and maintained in DMEM, supplemented with 10% (v/v) FBS, 50 µg/ml gentamicin and 4 µg/ml insulin (Sigma, Ireland). HeLa cells were obtained from the ATCC and maintained in DMEM supplemented with 100 µg/ml streptomycin, 100 U/ml penicillin, 2 mM L-glutamine, 0.1 mM non-essential amino acids (NEAA, Sigma), and 10% (v/v) FBS. Human umbilical vein endothelial cells (HUVEC) cells were obtained from Cambrex and maintained in an endothelial cell growth medium (Lonza, Dublin Ireland). Human Dermal fibroblast (HDF) cells were obtained from the European Collection of Cell Culture (ECACC) and were maintained in DMEM supplemented with 100 µg/ml streptomycin, 100 U/ml penicillin, 2 mM L-glutamine, and 10% (v/v) FBS. All cells were grown in humidified atmosphere of 95% air and 5% CO2 at 37°C.
(§2) Reduction of MTT [(3-(4,5-dimethylthiazol-2-yl)-2,5-diphenyltetrazolium bromide] by cells was assessed colorimetrically as previously described. Assays were carried out after 48 h of cell incubation (72 h for combinational studies) in the media containing test compounds at concentrations ranging from 200 µM to 0.2 µM depending upon compounds being tested.
In general terms: Tetrazolium assays rely on reduction of a dye to a coloured formazan, in cell work by metabolically active cells.

The subject of test [1] is breast carcinoma (MDA-MB-231) cells. Described as above. The format is cell-based, human. The conditions noted are these: 48 h incubation, read-out: concentration at which 50% cell growth inhibition occurs (IC50). How it is done: as §1, §2
Test [2] relates to colorectal cancer (HT-29). The test is described as above. The conditions noted are these: HT-29, 48 h incubation; read-out: concentration at which 50% cell growth inhibition occurs (IC50). Format: cell-based, human. The protocol: as §1, §2
In test [3] the test system is melanoma cell line (WM793). The test is described as above. Format: cell-based, human. The conditions noted are these: WM793, 48 h incubation; read-out: concentration at which 50% cell growth inhibition occurs (IC50). The protocol: as §1, §2
A further test has as its system Human glioma (SNB-19). Described as above. The conditions noted are these: SNB-19, 48 h incubation; read-out: concentration at which 50% cell growth inhibition occurs (IC50). The format is cell-based. The protocol: as §1, §2
In test [4] the test system is Human umbilical vein endothelial cells (HUVEC). The test is described as above. The conditions noted are these: 48 h incubation, read-out: concentration at which 50% cell growth inhibition occurs (IC50). Format: cell-based. The protocol: as §1, §2
For test [5], the system named is human pancreatic carcinoma (MiaPaCa). The test is described as above. Format: cell-based. The conditions noted are these: 48 h incubation, read-out: concentration at which 50% cell growth inhibition occurs (IC50). How it is done: as §1, §2
The subject of a further test is T-cell leukemia (Jurkat). The test is described as above. The format is cell-based, human. The conditions noted are these: 48 h incubation, read-out: concentration at which 50% cell growth inhibition occurs (IC50). The protocol: as §1, §2
For the next test, the system named is lung carcinoma (A549). Described as above. The format is cell-based, human. The conditions noted are these: A549, 48 h incubation; read-out: concentration at which 50% cell growth inhibition occurs (IC50). The protocol:
as §1, §2

Test [6] concerns Human Dermal fibroblast (HDF) cells. The test is described as above. Format: cell-based. The conditions noted are these: 48 h incubation, read-out: concentration at which 50% cell growth inhibition occurs (IC50). How it is done: as §1, §2
Another test concerns MDA-MB-231. The conditions noted are these: cited from earlier work.
The next test has as its system Jurkat. The conditions noted are these: cited from earlier work.
In the next test the test system is HeLa. Kind of test: Western blot analysis of apoptosis markers. The format is cell-based, human. The conditions noted are these: Fig. 5A. How it is done:
(§3) Cells were lyzed and protein levels determined using the bicinchoninic acid method (Pierce, Rockford, IL). Protein samples were separated by SDS-PAGE under reducing conditions. Resolved proteins were transferred to methanol-activated polyvinylidenedifluoride (PVDF) membrane (Millipore, Bedford, MA, USA and blocked in 5% (w/v) bovine serum albumin for 1 h at room temperature. Primary antibody was applied to membranes overnight at 4°C (anti-cleaved Caspase 3, 8, 9 and poly ADP-ribose polymerase (PARP), (1:1000 dilution; Cell Signaling Technology, Danvers, USA). Chemiluminescent signal was detected using the Fluorchem FC2 Imaging System (Alpha Innotech, Switzerland). Membranes were stripped and reprobed with anti-β-actin antibodies (1:1000 dilution; Santa-Cruz Biotechnology, Santa Cruz, USA) so as to provide loading control.

For a further test, the system named is MiaPaCa. In words: Western blot analysis of apoptosis markers. Format: cell-based, human. The conditions noted are these: Fig. 5B. How it is done:
as §3
For orientation: A western blot detects proteins with antibodies after separation by electrophoresis.

[7] abbreviates: HeLa, 48 h incubation, read-out: concentration at which 50% cell growth inhibition occurs (IC50).

Regarding “Kwklfkkipkflhlakkf (SEQ ID NO: 2) [DP18]”, the IC50 in the test on HeLa cells (setting [7]) was 18 ± 0.4 µM; in [1] it was 18.6 ± 0.8 µM; in [2] it was 17.5 ± 0.5 µM; in test [3] it was 22.8 ± 0.8 µM; in the test with Human glioma (SNB-19), 18.6 ± 1.5 µM; in test [4], 100 ± 9 µM. Also, in test [5], the IC50 stood at 18.9 ± 1.5 µM.
Regarding C10-kwklfkklpkflhlakkf [C10DP18L], the IC50 was 3 ± 0.1 µM with HeLa cells (setting [7]), 3.8 ± 0.4 µM in the test on T-cell leukemia (Jurkat), 4.3 ± 0.9 µM with Human glioma (SNB-19) and 5 ± 1.5 µM in test [5].
On to R10-kwklfkklpkflhlakkf [R10DP18L], for which the IC50 was ~2.4 µM in the test on HeLa cells (HeLa cells, concentration used in uptake study of biotinylated peptides (Fig. 3A), read-out: approximately the IC50 value); 2.8 ± 0.3 µM with HeLa cells (setting [7]); 3 ± 0.5 µM in the test with T-cell leukemia (Jurkat); 3.1 ± 0.8 µM in test [1]; 2.5 ± 0.7 µM in the test with lung carcinoma (A549); 7.9 ± 0.4 µM in [6]. The IC50 in [4] is 9.2 ± 0.8 µM.
Consider KWKLFKKIPKFLHLAKKF [P18], for which the cytotoxic activity entry with MDA-MB-231 and with Jurkat was “displays cytotoxic activity” each time.
With “Kwklfkklpkflhlakkf (SEQ ID NO: 1) [DP18L]”, the IC50 with HeLa cells (setting [7]) was found to be 12.7 ± 1.2 µM; with T-cell leukemia (Jurkat), 4.2 ± 0.6 µM; in test [1], 13.4 ± 2.4 µM; in test [2] it was 18.3 ± 0.9 µM; in test [3], 18.7 ± 3 µM; in the test with Human glioma (SNB-19), 27.3 ± 1.8 µM. The IC50 in test [4] was 140 ± 18 µM; in test [5], 13.9 ± 0.6 µM. The “Caspase 8” value with HeLa and in the test on MiaPaCa was “not detected at significant levels” each time. Further, the “apoptotic cell death (activation of caspase 3, 9 and the caspase substrate PARP)” value in the test on HeLa and in the test on MiaPaCa was “induces apoptotic cell death” throughout.
